# Assay results: the supplement of paper PMC10307832
# Experiments:
# [1] = compound: CC1=CC(=CC=C1)NC2=NC(=CS2)C3=CC=NC=C3; experiment: relative viability (nuclei count vs DMSO), 5 days (fraction); higher = more cells survive
# In short: (§1)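 Lung cancer cell lines were seeded into 1536-well plates, kept overnight at 37 °C and pinned with five library-drug doses (not always all listed) spaced by √10. After 5 days, nuclei were Hoechst-stained, imaged at 4× and counted with MetaXpress. Viability is treated-well nuclei over vehicle-well nuclei, taken as a median across plates. Plates needed control CV below 25% and at least one doubling.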
# Masitinib = compound: Cc1ccc(NC(=O)c2ccc(CN3CCN(C)CC3)cc2)cc1Nc1nc(-c2cccnc2)cs1 [Masitinib]; experiment: as above
# In short: as §1
Cell Line,relative viability ([1]; 0.08 µM),relative viability ([1]; 0.253 µM),relative viability ([1]; 0.8 µM),relative viability ([1]; 2.53 µM),relative viability ([1]; 8 µM),relative viability (Masitinib; 0.01 µM),relative viability (Masitinib; 0.03162 µM),relative viability (Masitinib; 0.1 µM),relative viability (Masitinib; 0.3162 µM),relative viability (Masitinib; 1 µM)
NCI-H1734,0.864,0.952,1.03,0.988,0.96,0.957,1.08,1.06,0.976,0.942
NCI-H1755,0.926,0.942,0.866,0.857,0.697,,0.935,0.886,1.02,0.935
NCI-H1792,0.746,0.698,0.793,0.653,0.753,0.76,0.76,1.04,0.814,0.735
NCI-H1793,0.75,0.801,0.898,0.816,0.841,0.886,0.804,0.878,0.978,0.795
NCI-H1915,0.937,0.961,0.962,0.938,0.89,,0.999,,1,0.977
NCI-H1944,0.871,0.912,0.958,0.765,0.809,,0.972,,0.799,0.955
NCI-H1975,0.798,0.762,0.843,0.714,0.549,0.983,0.923,1.06,0.676,0.852
NCI-H1993,0.67,0.788,0.768,0.792,0.876,0.91,0.867,0.986,0.826,0.917
NCI-H2009,0.877,0.944,0.98,0.945,0.893,0.806,0.991,0.922,0.994,0.981
NCI-H2023,0.898,0.94,0.926,0.876,0.633,0.952,1.01,0.984,0.922,0.901
NCI-H2085,0.99,1,0.968,0.94,0.826,0.891,0.983,1.01,1.05,0.958
NCI-H2087,0.951,0.895,1.01,0.877,0.93,0.961,1.22,1.07,1.18,1.01
NCI-H2126,0.881,0.864,0.893,0.824,0.863,0.908,0.996,0.978,0.847,0.931
NCI-H2170,0.901,1.01,0.945,0.942,0.824,0.843,0.933,0.983,1.04,0.991
NCI-H2228,0.838,0.948,0.784,0.91,0.726,0.998,0.808,1.16,1.04,1.06
NCI-H2342,0.96,0.929,0.95,0.93,0.881,1.03,0.866,1.07,0.889,0.843
NCI-H2347,0.948,0.864,0.749,0.982,0.964,0.88,0.911,1,1.02,0.966
NCI-H2405,0.851,0.918,0.85,0.915,0.901,0.859,0.953,0.907,0.973,0.932
NCI-H3122,0.983,1.05,1.04,1.06,0.972,0.854,1.03,0.959,1,1.08
PC-3 [JPC-3],0.941,0.936,0.927,0.868,0.91,0.95,0.951,1.04,1.04,1.02
PC-14,0.94,0.899,0.943,0.917,0.766,0.916,0.943,1.01,1.01,1.01
RERF-LC-KJ,0.945,0.91,0.834,0.751,0.714,0.922,0.943,1.03,0.963,0.829
SK-LU-1,0.996,1.03,0.702,1.1,0.968,1.05,1.05,1.13,1.24,1.02
SK-MES-1,0.815,0.82,0.804,0.922,0.861,0.923,0.945,1.04,0.881,0.99
SW 900,0.708,0.774,0.808,0.487,0.514,0.854,0.881,0.778,0.629,0.7
SW 1573,0.989,0.945,1.08,0.962,0.909,1.08,0.945,1.1,1.02,0.974
